In brackets after ≈: the same amount, converted by molar mass. Activity calls are given as the source filed them. The calls are words filed in the database; no cut-off is given here.
Key:
KB [1] = assay: In vitro antiproliferative activity measured against KB cancer cell line using MTT colorimetric assay; format: functional, cell-based; settings: Homo sapiens
P388 [2] = assay: Effect on the cell cycle progression using P388 cells at 4.0 ug/mL for 24 hr; GI increase; format: functional, cell-based; settings: Mus musculus
P388 [3] = assay: In vitro antiproliferative activity measured against P388 cancer cell line using MTT colorimetric assay; format: functional, cell-based; settings: Mus musculus
MC-38 [4] = assay: In vitro antiproliferative activity measured against colon 38 cancer cell line using MTT colorimetric assay; format: functional, cell-based; settings: Mus musculus
P388 [5] = assay: Effect on the cell cycle progression using P388 cells at 4.0 ug/mL for 24 hr; G2/M arrest & 4C-8C drug treated cells underwent an extra DNA replication without the completion of mitosis; format: functional, cell-based; settings: Mus musculus
P388 [6] = assay: Concentration at which compound caused cellular accumulation in GI phase in P388 cells; format: functional, cell-based; settings: Mus musculus
Bos taurus = species on record: Bos taurus; assay: Inhibitory activity against bovine microtubule assembly; format: functional
MC-38 [7] = assay: In vitro antiproliferative activity (4 ug/mL) was measured against colon 38 cancer cell line using MTT colorimetric assay; format: functional, cell-based; settings: Mus musculus
KB [8] = assay: In vitro antiproliferative activity (4 ug/mL) was measured against KB cancer cell line using MTT colorimetric assay; format: functional, cell-based; settings: Homo sapiens
P388 [9] = assay: In vitro antiproliferative activity was measured against P388 cancer cell line using MTT colorimetric assay; settings: Mus musculus
P388 [10] = assay: Effect on the cell cycle progression using P388 cells at 4.0 ug/mL for 24 hr; G2/M arrest; format: functional, cell-based; settings: Mus musculus
Tubulin (Bos taurus) [11] = target: T1, Tubulin (Bos taurus) (UniProt Q6B856+Q862L2+Q862F3); assay: Compound was tested against bovine brain tubulin polymerization; active; format: functional
P388 [12] = assay: Effect on the cell cycle progression using P388 cells at 4.0 ug/mL for 24 hr; No effect; format: functional, cell-based; settings: Mus musculus
P388 [13] = assay: Effect on the cell cycle progression using P388 cells at 4.0 ug/mL for 24 hr; G2/M increase; format: functional, cell-based; settings: Mus musculus
P388 [14] = assay: Effect on the cell cycle progression using P388 cells at 4.0 ug/mL for 24 hr; Effect:G2/M arrest & 4C-8C drug treated cells underwent an extra DNA replication without the completion of mitosis; format: functional, cell-based; settings: Mus musculus
Tubulin (Bos taurus) [15] = target: T1, Tubulin (Bos taurus); assay: Compound was tested against bovine brain tubulin polymerization; format: functional

Row | Compound | IC50 (KB [1]) [mg/L] | Cell cycle analysis (P388 [2]) | IC50 (P388 [3]) [mg/L] | IC50 (MC-38 [4]) [mg/L] | other results
1 | Nc1ccc(S(=O)(=O)Nc2ccc(F)c3c(Cl)c[nH]c23)cc1 | 14 (≈ 41.2 µM) | GI increase | 0.51 (≈ 1.5 µM) | 0.11 (≈ 0.324 µM) | 
2 | Nc1ccc(S(=O)(=O)Nc2cccc3cc(O)[nH]c23)cc1 | 0.86 (≈ 2.84 µM) |  | 1.2 (≈ 3.96 µM) | 1.8 (≈ 5.93 µM) | Cell cycle analysis (P388 [5]): G2/M arrest
3 | Nc1ccc(S(=O)(=O)Nc2cccc3c(Cl)c[nH]c23)cc1 |  | GI increase |  |  | Concentration (P388 [6]): 4 µg/mL; Concentration (Bos taurus): > 33.3 µg/mL
4 | O=[N+]([O-])c1ccc(S(=O)(=O)Nc2cccc3c(Cl)c[nH]c23)cc1 | 14 (≈ 39.8 µM) | GI increase | 2.3 (≈ 6.54 µM) | 0.34 (≈ 0.967 µM) | 
5 | O=S(=O)(Nc1ccc(Cl)c2cc[nH]c12)c1ccc(Cl)cc1 | 9.7 (≈ 28.4 µM) | GI increase | 4.6 (≈ 13.5 µM) | 0.66 (≈ 1.93 µM) | 
6 | N#Cc1ccc(S(=O)(=O)Nc2ccc(Cl)c3c(Cl)c[nH]c23)cc1 | 13 (≈ 35.5 µM) | GI increase | 0.59 (≈ 1.61 µM) | 0.12 (≈ 0.328 µM) | 
7 | N#Cc1ccc(S(=O)(=O)Nc2ccc(Cl)c3cc[nH]c23)cc1 | 15 (≈ 45.2 µM) | GI increase | 1.8 (≈ 5.43 µM) | 0.22 (≈ 0.663 µM) | 
8 | Cc1ccc(S(=O)(=O)Nc2cccc3cc(O)[nH]c23)cc1 |  |  |  |  | IC50 (MC-38 [7]): 0.17 mg/L (≈ 0.562 µM); IC50 (KB [8]): 0.093 mg/L (≈ 0.308 µM); IC50 (P388 [9]): 0.14 mg/L (≈ 0.463 µM); Cell cycle analysis (P388 [10]): G2/M arrest; Activity (Tubulin (Bos taurus) [11]): Active
9 | Nc1ccc(S(=O)(=O)Nc2ccc(Cl)c3c(Cl)c[nH]c23)cc1 | 14 (≈ 39.3 µM) | GI increase | 0.49 (≈ 1.38 µM) | 0.1 (≈ 0.281 µM) | 
10 | COc1ccc(S(=O)(=O)Nc2cccc3cc(Cl)[nH]c23)cc1 |  |  |  |  | IC50 (MC-38 [7]): 0.17 mg/L (≈ 0.505 µM); IC50 (KB [8]): 0.12 mg/L (≈ 0.356 µM); IC50 (P388 [9]): 0.11 mg/L (≈ 0.327 µM); Cell cycle analysis (P388 [10]): G2/M arrest; Activity (Tubulin (Bos taurus) [11]): Active
11 | O=S(=O)(Nc1cccc2cc[nH]c12)c1ccc(Cl)cc1 |  |  |  |  | Cell cycle analysis (P388 [12]): inactive
12 | Nc1ccc(S(=O)(=O)Nc2ccc(Br)c3c(Cl)c[nH]c23)cc1 | 13 (≈ 32.4 µM) | GI increase | 0.64 (≈ 1.6 µM) | 0.14 (≈ 0.349 µM) | 
13 | N#Cc1ccc(S(=O)(=O)Nc2cccc3c(Cl)c[nH]c23)cc1 |  | GI increase |  |  | 
14 | O=[N+]([O-])c1ccc(S(=O)(=O)Nc2cc(Cl)cc3cc[nH]c23)cc1 | 12 (≈ 34.1 µM) |  | 13 (≈ 37 µM) | 13 (≈ 37 µM) | Cell cycle analysis (P388 [12]): inactive
15 | O=S(=O)(Nc1cccc2cc(Cl)[nH]c12)c1ccc(Cl)cc1 |  |  |  |  | Cell cycle analysis (P388 [13]): G2/M increase; IC50 (MC-38 [7]): 10 mg/L (≈ 29.3 µM); IC50 (KB [8]): 4 mg/L (≈ 11.7 µM); IC50 (P388 [9]): 7.4 mg/L (≈ 21.7 µM); Activity (Tubulin (Bos taurus) [11]): Active
16 | Cc1ccc(S(=O)(=O)Nc2cccc3cc(Cl)[nH]c23)cc1 | 0.11 (≈ 0.343 µM) |  | 0.14 (≈ 0.436 µM) | 0.18 (≈ 0.561 µM) | Cell cycle analysis (P388 [10]): G2/M arrest
17 | COc1ccc(S(=O)(=O)Nc2cccc3cc(O)[nH]c23)cc1 | 0.1 (≈ 0.314 µM) |  | 0.11 (≈ 0.346 µM) | 0.22 (≈ 0.691 µM) | Cell cycle analysis (P388 [10]): G2/M arrest

Row | Compound | IC50 (KB [1]) [mg/L] | Cell cycle analysis (P388 [2]) | IC50 (P388 [3]) [mg/L] | IC50 (MC-38 [4]) [mg/L] | other results
18 | O=[N+]([O-])c1ccc(S(=O)(=O)Nc2cccc3cc[nH]c23)cc1 | 15 (≈ 47.3 µM) |  | 8.2 (≈ 25.8 µM) | 7.2 (≈ 22.7 µM) | Cell cycle analysis (P388 [12]): inactive
19 | COc1ccc(S(=O)(=O)Nc2cccc3cc[nH]c23)cc1 |  |  |  |  | Cell cycle analysis (P388 [14]): Effect
20 | Cc1ccc(NS(=O)(=O)c2ccc(N)cc2)c2[nH]cc(Cl)c12 | 16 (≈ 47.6 µM) | GI increase | 0.37 (≈ 1.1 µM) | 0.1 (≈ 0.298 µM) | 
21 | O=S(=O)(Nc1cccc2cc(O)[nH]c12)c1ccc(Cl)cc1 | 1.1 (≈ 3.41 µM) |  | 2.2 (≈ 6.82 µM) | 4.5 (≈ 13.9 µM) | Cell cycle analysis (P388 [5]): G2/M arrest
22 | O=[N+]([O-])c1ccc(S(=O)(=O)Nc2cccc3cc(O)[nH]c23)cc1 | > 100 |  | > 100 | 62 (≈ 186 µM) | Cell cycle analysis (P388 [12]): inactive
23 | COc1ccc(S(=O)(=O)Nc2cccc3c(Cl)c[nH]c23)cc1 |  |  |  |  | Cell cycle analysis (P388 [5]): G2/M arrest; Activity (Tubulin (Bos taurus) [11]): Active
24 | O=S(=O)(Nc1cc(Cl)cc2cc[nH]c12)c1ccc(Cl)cc1 | 9.1 (≈ 26.7 µM) |  | 9.9 (≈ 29 µM) | 8.5 (≈ 24.9 µM) | Cell cycle analysis (P388 [12]): inactive
25 | COc1ccc(S(=O)(=O)Nc2cccnc2Nc2ccc(O)cc2)cc1 |  |  |  |  | Activity (Tubulin (Bos taurus) [15]): Active; Cell cycle analysis (P388 [10]): G2/M arrest
26 | O=[N+]([O-])c1ccc(S(=O)(=O)Nc2ccc(Cl)c3cc[nH]c23)cc1 | 9.1 (≈ 25.9 µM) | GI increase | 3.3 (≈ 9.38 µM) | 0.67 (≈ 1.9 µM) | 
27 | O=S(=O)(Nc1cccc2c(Cl)c[nH]c12)c1ccc(Cl)cc1 | 8.8 (≈ 25.8 µM) | GI increase | 4.3 (≈ 12.6 µM) | 0.28 (≈ 0.821 µM) | 
28 | COc1ccc(S(=O)(=O)Nc2ccc(Cl)c3cc[nH]c23)cc1 | 0.92 (≈ 2.73 µM) |  | 1.1 (≈ 3.27 µM) | 0.65 (≈ 1.93 µM) | Cell cycle analysis (P388 [14]): Effect
29 | Nc1ccc(S(=O)(=O)Nc2ccc(-c3ccccc3)c3c(Cl)c[nH]c23)cc1 | 15 (≈ 37.7 µM) |  | 19 (≈ 47.8 µM) | 19 (≈ 47.8 µM) | Cell cycle analysis (P388 [12]): inactive
30 | Nc1ccc(S(=O)(=O)Nc2cccc3cc[nH]c23)cc1 |  |  |  |  | Cell cycle analysis (P388 [12]): inactive
31 | O=[N+]([O-])c1ccc(S(=O)(=O)Nc2cccc3cc(Cl)[nH]c23)cc1 | 18 (≈ 51.2 µM) |  | 21 (≈ 59.7 µM) | 19 (≈ 54 µM) | Cell cycle analysis (P388 [12]): inactive
32 | Nc1ccc(S(=O)(=O)Nc2cccc3cc(Cl)[nH]c23)cc1 | 1.4 (≈ 4.35 µM) |  | 2.2 (≈ 6.84 µM) | 2.9 (≈ 9.01 µM) | Cell cycle analysis (P388 [5]): G2/M arrest
33 | COc1ccc(NS(=O)(=O)c2ccc(N)cc2)c2[nH]cc(Cl)c12 | 20 (≈ 56.8 µM) |  | 5.5 (≈ 15.6 µM) | 2.3 (≈ 6.54 µM) | Cell cycle analysis (P388 [12]): inactive
34 | COc1ccc(S(=O)(=O)Nc2cc(Cl)cc3cc[nH]c23)cc1 | 0.21 (≈ 0.624 µM) |  | 0.27 (≈ 0.802 µM) | 0.64 (≈ 1.9 µM) | Cell cycle analysis (P388 [10]): G2/M arrest
